# Data taken from PMC13099141, “Antibiotic potentiation and inhibition of cross-resistance in pathogens associated with cystic fibrosis” (eLife, 2026).
# Legend:
# Test in all cases: nitrocefin hydrolysis, absorbance at […] nm, sonicated lysate
# Type in all cases: biochemical
# Conditions in all cases: 0.4 mM nitrocefin, 100 mM sodium phosphate pH 7.0, 25 °C; dsbA+ E. coli
# AIM-1 = target: T1, AIM-1 (Pseudomonas aeruginosa, UniProt B5DCA0)
# T1 construct: gene blaAIM-1; full-length class B3 metallo-beta-lactamase from pDM1-blaAIM-1 in E. coli MC1000, lysate; gene from clinical isolate
# POM-1 = target: T2, POM-1 (Metapseudomonas otitidis, UniProt E6Y3G9)
# T2 construct: gene pom1; full-length class B3 metallo-beta-lactamase from pDM1-blaPOM-1 in E. coli MC1000, lysate; gene from clinical isolate
# CARB-2 = target: T3, CARB-2 (Pseudomonas aeruginosa, UniProt Q03170)
# T3 construct: gene pse1; full-length class A carbenicillinase, synthetic gene in pDM1, E. coli MC1000 lysate
# BEL-1 = target: T4, BEL-1 (Pseudomonas aeruginosa, UniProt Q3SAW3)
# T4 construct: gene bla(BEL1); full-length class A beta-lactamase from plasmid pDM1-blaBEL-1 in E. coli MC1000, sonicated lysate; gene from clinical isolate
# SMB-1 = target: T5, SMB-1 (Serratia marcescens, UniProt G5ELM3)
# T5 construct: full-length class B3 metallo-beta-lactamase, synthetic gene in pDM1, E. coli MC1000 lysate
# OXA-50 = target: T6, OXA-50 (Pseudomonas aeruginosa, UniProt G3XCV9)
# T6 construct: gene PA5514; full-length class D beta-lactamase from pDM1-blaOXA-50 in E. coli MC1000, lysate; gene from clinical isolate
# T6 sequence (G3XCV9 entry or part of it): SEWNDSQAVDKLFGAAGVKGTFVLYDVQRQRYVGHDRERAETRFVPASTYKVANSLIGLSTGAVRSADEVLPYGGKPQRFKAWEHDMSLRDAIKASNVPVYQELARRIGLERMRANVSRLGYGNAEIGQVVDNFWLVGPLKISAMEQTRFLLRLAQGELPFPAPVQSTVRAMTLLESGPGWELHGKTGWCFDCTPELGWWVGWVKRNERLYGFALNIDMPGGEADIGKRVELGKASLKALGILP
# T5 sequence (G5ELM3 entry or part of it): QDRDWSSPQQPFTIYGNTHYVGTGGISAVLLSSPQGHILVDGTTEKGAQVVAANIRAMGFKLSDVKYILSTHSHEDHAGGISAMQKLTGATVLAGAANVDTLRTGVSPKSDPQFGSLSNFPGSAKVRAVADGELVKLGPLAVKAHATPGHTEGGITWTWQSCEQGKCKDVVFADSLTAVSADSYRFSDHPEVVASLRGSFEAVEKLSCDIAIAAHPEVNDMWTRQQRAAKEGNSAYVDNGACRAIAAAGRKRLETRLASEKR
# T3 sequence (Q03170 18-288): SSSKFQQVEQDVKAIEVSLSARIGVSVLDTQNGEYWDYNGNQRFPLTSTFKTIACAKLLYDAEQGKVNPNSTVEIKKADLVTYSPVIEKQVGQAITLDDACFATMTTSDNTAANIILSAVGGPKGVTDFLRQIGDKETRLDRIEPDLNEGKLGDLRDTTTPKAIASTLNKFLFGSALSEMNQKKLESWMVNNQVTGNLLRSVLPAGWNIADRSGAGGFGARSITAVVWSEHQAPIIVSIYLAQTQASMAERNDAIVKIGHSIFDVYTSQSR
# T2 sequence (E6Y3G9 entry or part of it): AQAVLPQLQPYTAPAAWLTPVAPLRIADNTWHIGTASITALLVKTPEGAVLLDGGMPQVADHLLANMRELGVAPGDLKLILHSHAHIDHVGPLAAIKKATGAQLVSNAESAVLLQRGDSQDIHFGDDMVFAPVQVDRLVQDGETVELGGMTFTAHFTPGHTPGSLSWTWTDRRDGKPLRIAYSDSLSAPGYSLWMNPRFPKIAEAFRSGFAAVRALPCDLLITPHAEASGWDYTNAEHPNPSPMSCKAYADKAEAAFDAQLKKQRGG
# T4 sequence (Q3SAW3 entry or part of it): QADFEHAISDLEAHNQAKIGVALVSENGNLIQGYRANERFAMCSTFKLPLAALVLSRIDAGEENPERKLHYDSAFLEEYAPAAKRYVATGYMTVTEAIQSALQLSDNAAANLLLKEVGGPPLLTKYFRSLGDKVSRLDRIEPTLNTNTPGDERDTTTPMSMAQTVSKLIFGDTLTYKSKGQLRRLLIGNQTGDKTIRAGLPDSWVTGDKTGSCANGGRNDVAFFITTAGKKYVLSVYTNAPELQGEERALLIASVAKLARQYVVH
# T1 sequence (B5DCA0 entry or part of it): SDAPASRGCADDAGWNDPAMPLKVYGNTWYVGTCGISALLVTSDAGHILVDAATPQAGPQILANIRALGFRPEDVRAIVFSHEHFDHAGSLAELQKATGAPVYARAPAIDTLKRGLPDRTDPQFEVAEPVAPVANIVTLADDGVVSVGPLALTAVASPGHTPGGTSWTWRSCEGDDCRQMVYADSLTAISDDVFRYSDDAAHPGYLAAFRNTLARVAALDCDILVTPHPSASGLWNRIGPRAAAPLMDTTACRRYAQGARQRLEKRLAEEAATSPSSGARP
smiles,measurement,setting,value
O=C(Cc1cccs1)N[C@@H]1C(=O)N2C(C(=O)O)=C(/C=C/c3ccc([N+](=O)[O-])cc3[N+](=O)[O-])CS[C@H]12 [nitrocefin],"nitrocefin hydrolysis, absorbance at 490 nm, sonicated lysate",AIM-1,The hydrolysis of the chromogenic β-lactam nitrocefin by cysteine-containing β-lactamases is impaired
same,"nitrocefin hydrolysis, absorbance at 490 nm, sonicated lysate",POM-1,The hydrolytic activities of both tested β-lactamases are significantly reduced in the absence of DsbA
same,"nitrocefin hydrolysis, absorbance at 490 nm, sonicated lysate",CARB-2,The hydrolysis of the chromogenic β-lactam nitrocefin by cysteine-containing β-lactamases is impaired
same,"nitrocefin hydrolysis, absorbance at 490 nm, sonicated lysate",BEL-1,The hydrolysis of the chromogenic β-lactam nitrocefin by cysteine-containing β-lactamases is impaired
same,"nitrocefin hydrolysis, absorbance at 490 nm, sonicated lysate",SMB-1,The hydrolytic activities of both tested β-lactamases are significantly reduced in the absence of DsbA
same,"nitrocefin hydrolysis, absorbance at 490 nm, sonicated lysate",OXA-50,The hydrolysis of the chromogenic β-lactam nitrocefin by cysteine-containing β-lactamases is impaired
